How the values were obtained:
[1] = biological target: Replicase polyprotein 1ab (Severe acute respiratory syndrome coronavirus 2, UniProt P0DTD1); test: Inhibition of SARS-CoV-2 3CL protease expressed in Escherichia coli BL21 (DE3) cells assessed as change in relative fluorescence unit using MCA-TSAVLQSGFRK(DNP)M as substrate preincubated for 30 mins followed by substrate addition and measured after 2 hrs by microplate reader based FRET assay
[2] = tested on: A549; test: Cytotoxicity against human A549 cells assessed as inhibition of cell growth measured after 24 hrs by MTT assay; assay type: toxicity, cell-based; settings: a549, 24 h
[3] = tested on: SARS-CoV-2; test: Antiviral activity against SARS-CoV-2 WIV04 infected in African green monkey Vero cells assessed as inhibition of viral proliferation measured at 24 hrs post infection by qRT-PCR analysis; assay type: functional, organism-based; settings: Severe acute respiratory syndrome coronavirus 2, WIV04, Vero
[4] = tested on: SARS-CoV-2; test: Antiviral activity against SARS-CoV-2 WIV04 infected in African green monkey Vero cells assessed as log reduction in viral RNA at 10 uM measured at 24 hrs post infection by qRT-PCR analysis; assay type: functional, Severe acute respiratory syndrome coronavirus 2
[5] = tested on: Vero; test: Cytotoxicity against African green monkey Vero cells assessed as reduction in cell viability incubated for 48 hrs by CCK8 assay; assay type: toxicity, cell-based; settings: chlorocebus sabaeus

| SMILES | IC50 [1] [nM] | Activity [2] | EC50 [3] [nM] | log(activity) [4] | Activity [5] |
| --- | --- | --- | --- | --- | --- |
| CC(C)[C@H](NC(=O)/C=C/c1ccccc1)C(=O)N[C@H](C=O)C[C@@H]1CCCNC1=O | 6930 | Non-Toxic | > 3000 |  |  |
| CC(C)C[C@H](NC(=O)/C=C/c1ccccc1)C(=O)N[C@H](C=O)C[C@@H]1CCCNC1=O | 321 | Non-Toxic | 1510 | 2 | Non-Toxic |
| O=C[C@H](C[C@@H]1CCNC1=O)NC(=O)[C@H](Cc1cccc(F)c1)NC(=O)c1cc2ccccc2[nH]1 | 858 | Non-Toxic | 360 |  |  |
| CC(C)C[C@H](NC(=O)[C@@H](NC(=O)c1cc2ccccc2[nH]1)C(C)C)C(=O)N[C@H](C=O)C[C@@H]1CCCNC1=O | 295 | Non-Toxic | > 3000 |  |  |
| CCC[C@H](NC(=O)/C=C/c1ccccc1)C(=O)N[C@@H](CC(C)C)C(=O)N[C@H](C=O)C[C@@H]1CCCNC1=O | 543 | Non-Toxic | > 3000 |  |  |
| CC(C)C[C@H](NC(=O)[C@@H](NC(=O)C1CCOCC1)C(C)C)C(=O)N[C@H](C=O)C[C@@H]1CCCNC1=O | 285 | Non-Toxic | > 3000 |  |  |
| C#CC[C@H](NC(=O)/C=C/c1ccccc1)C(=O)N[C@H](C=O)C[C@@H]1CCCNC1=O | 3280 | Non-Toxic | > 3000 |  |  |
| CC(C)C[C@H](NC(=O)[C@H](CC1CCCCC1)NC(=O)/C=C/c1ccccc1)C(=O)N[C@H](C=O)C[C@@H]1CCCNC1=O | 1500 | Non-Toxic | 1670 | 2 | Non-Toxic |
| CC(C)C[C@H](NC(=O)[C@@H](NC(=O)c1ccco1)C(C)C)C(=O)N[C@H](C=O)C[C@@H]1CCCNC1=O | 234 | Non-Toxic | > 3000 |  |  |
| Cc1ccc(/C=C/C(=O)N[C@H](C(=O)N[C@@H](CC(C)C)C(=O)N[C@H](C=O)C[C@@H]2CCCNC2=O)C(C)C)cc1 | 196 | Non-Toxic | > 3000 |  |  |
| CC(C)C[C@H](NC(=O)[C@@H](NC(=O)C1CCCCC1)C(C)C)C(=O)N[C@H](C=O)C[C@@H]1CCCNC1=O | 1410 | Non-Toxic | > 3000 |  |  |
| CC(C)C[C@H](NC(=O)[C@@H](NC(=O)/C=C/c1ccc(-c2ccccc2)cc1)C(C)C)C(=O)N[C@H](C=O)C[C@@H]1CCCNC1=O | 295 | Non-Toxic | > 3000 |  |  |
| CC(C)C[C@H](NC(=O)[C@@H](NC(=O)c1cccnc1)C(C)C)C(=O)N[C@H](C=O)C[C@@H]1CCCNC1=O | 640 | Non-Toxic | > 3000 |  |  |
| C#CC[C@H](NC(=O)/C=C/c1ccccc1)C(=O)N[C@H](C=O)C[C@@H]1CCNC1=O | 3890 | Non-Toxic | > 3000 |  |  |
| CC(C)C[C@H](NC(=O)[C@@H](NC(=O)CCc1ccccc1)C(C)C)C(=O)N[C@H](C=O)C[C@@H]1CCCNC1=O | 199 | Non-Toxic | > 3000 |  |  |
| CC(C)C[C@H](NC(=O)[C@@H](NC(=O)c1ccc(C(F)(F)F)cc1)C(C)C)C(=O)N[C@H](C=O)C[C@@H]1CCCNC1=O | 1430 | Non-Toxic | > 3000 |  |  |
| CC(C)(C)[C@H](NC(=O)/C=C/c1ccccc1)C(=O)N[C@H](C=O)C[C@@H]1CCCNC1=O | 3440 | Non-Toxic | > 3000 | 2 |  |
| CC(C)C[C@H](NC(=O)[C@@H](NC(=O)/C=C/c1ccccc1)C(C)C)C(=O)N[C@H](C=O)C[C@@H]1CCCNC1=O | 281 | Non-Toxic | > 3000 |  |  |
| CC(C)C[C@H](NC(=O)[C@@H](NC(=O)c1ccc[nH]1)C(C)C)C(=O)N[C@H](C=O)C[C@@H]1CCCNC1=O | 172 | Non-Toxic | > 3000 |  |  |
| O=C[C@H](C[C@@H]1CCCNC1=O)NC(=O)[C@@H](NC(=O)/C=C/c1ccccc1)c1ccccc1 | 2040 | Non-Toxic | > 3000 |  |  |
| CC(C)C[C@H](NC(=O)[C@@H](NC(=O)c1ccc(F)cc1)C(C)C)C(=O)N[C@H](C=O)C[C@@H]1CCCNC1=O | 197 | Non-Toxic | > 3000 |  |  |
| CC(C)C[C@H](NC(=O)[C@@H](NC(=O)/C=C/c1ccc(N(C)C)cc1)C(C)C)C(=O)N[C@H](C=O)C[C@@H]1CCCNC1=O | 592 | Non-Toxic | > 3000 |  |  |

| SMILES | IC50 [1] [nM] | Activity [2] | EC50 [3] [nM] | log(activity) [4] | Activity [5] |
| --- | --- | --- | --- | --- | --- |
| CC(C)C[C@H](NC(=O)[C@@H](NC(=O)/C=C/c1ccc(C(C)C)cc1)C(C)C)C(=O)N[C@H](C=O)C[C@@H]1CCCNC1=O | 230 | Non-Toxic | > 3000 |  |  |
| CC[C@H](C)[C@H](NC(=O)/C=C/c1ccccc1)C(=O)N[C@@H](CC(C)C)C(=O)N[C@H](C=O)C[C@@H]1CCCNC1=O | 357 | Non-Toxic | > 3000 |  |  |
| CC(C)C[C@H](NC(=O)[C@@H](NC(=O)c1ccccc1)C(C)C)C(=O)N[C@H](C=O)C[C@@H]1CCCNC1=O | 257 | Non-Toxic | > 3000 |  |  |
| CC(C)C[C@H](NC(=O)[C@@H](NC(=O)c1ccc(-c2ccccc2)cc1)C(C)C)C(=O)N[C@H](C=O)C[C@@H]1CCCNC1=O | 404 | Non-Toxic | > 3000 |  |  |
| CC(C)C[C@H](NC(=O)[C@@H](NC(=O)c1ccc(Cl)cc1)C(C)C)C(=O)N[C@H](C=O)C[C@@H]1CCCNC1=O | 148 | Non-Toxic | > 3000 |  |  |
| CC(C)C[C@H](NC(=O)[C@@H](NC(=O)c1ccc2cc[nH]c2c1)C(C)C)C(=O)N[C@H](C=O)C[C@@H]1CCCNC1=O | 221 | Non-Toxic | > 3000 |  |  |
| CC(C)C[C@H](NC(=O)/C=C/c1ccccc1)C(=O)N[C@H](C=O)C[C@@H]1CCNC1=O | 374 | Non-Toxic | 1060 | 2 | Non-Toxic |
| CC(C)C[C@H](NC(=O)[C@@H](NC(=O)c1ccccn1)C(C)C)C(=O)N[C@H](C=O)C[C@@H]1CCCNC1=O | 565 | Non-Toxic | > 3000 |  |  |
| CC(C)C[C@H](NC(=O)[C@@H](NC(=O)/C=C/c1ccccc1F)C(C)C)C(=O)N[C@H](C=O)C[C@@H]1CCCNC1=O | 173 | Non-Toxic | > 3000 |  |  |
| CC(C)C[C@H](NC(=O)[C@@H](NC(=O)/C=C/c1cccc(F)c1)C(C)C)C(=O)N[C@H](C=O)C[C@@H]1CCCNC1=O | 255 | Non-Toxic | > 3000 |  |  |
| O=C[C@H](C[C@@H]1CCCNC1=O)NC(=O)[C@H](CC1CC1)NC(=O)/C=C/c1ccccc1 | 298 | Non-Toxic | 1130 |  | Non-Toxic |
| CC(C)C[C@H](NC(=O)[C@@H](NC(=O)c1ccoc1)C(C)C)C(=O)N[C@H](C=O)C[C@@H]1CCCNC1=O | 173 | Non-Toxic | > 3000 |  |  |
| CCCC[C@H](NC(=O)/C=C/c1ccccc1)C(=O)N[C@H](C=O)C[C@@H]1CCNC1=O | 373 | Non-Toxic | 1110 | 2 | Non-Toxic |
| CC(C)C[C@H](NC(=O)[C@@H](NC(=O)/C=C/c1ccc(F)cc1)C(C)C)C(=O)N[C@H](C=O)C[C@@H]1CCCNC1=O | 307 | Non-Toxic | > 3000 |  |  |
| C[C@H](NC(=O)/C=C/c1ccccc1)C(=O)N[C@H](C=O)C[C@@H]1CCCNC1=O | 12300 | Non-Toxic | > 3000 |  |  |
| CC(C)C[C@H](NC(=O)[C@@H](NC(=O)c1ccc2ccccc2c1)C(C)C)C(=O)N[C@H](C=O)C[C@@H]1CCCNC1=O | 271 | Non-Toxic | 1360 | 2 | Non-Toxic |
| CC(C)C[C@H](NC(=O)[C@@H](NC(=O)c1ccc([N+](=O)[O-])cc1)C(C)C)C(=O)N[C@H](C=O)C[C@@H]1CCCNC1=O | 209 | Non-Toxic | > 3000 |  |  |
| CC(C)C[C@H](NC(=O)[C@@H](NC(=O)c1ccncc1)C(C)C)C(=O)N[C@H](C=O)C[C@@H]1CCCNC1=O | 153 | Non-Toxic | > 3000 |  |  |
| CCCC[C@H](NC(=O)/C=C/c1ccccc1)C(=O)N[C@H](C=O)C[C@@H]1CCCNC1=O | 277 | Non-Toxic | > 3000 |  |  |
| C=CC[C@H](NC(=O)/C=C/c1ccccc1)C(=O)N[C@H](C=O)C[C@@H]1CCCNC1=O | 1340 | Non-Toxic | > 3000 |  |  |
| COc1ccc(/C=C/C(=O)N[C@H](C(=O)N[C@@H](CC(C)C)C(=O)N[C@H](C=O)C[C@@H]2CCCNC2=O)C(C)C)cc1 | 249 | Non-Toxic | > 3000 |  |  |
